From paper PMC6534212, “Synthesis and biological evaluation of 3–(4-aminophenyl)-coumarin derivatives as potential anti-Alzheimer’s disease agents” (Journal of Enzyme Inhibition and Medicinal Chemistry, 2019)
Entries after “also recorded” stand apart in the source; their conditions may differ.

Assays:
BuChE from equine serum = molecular target: T1, BuChE from equine serum (Equus caballus, UniProt P81908); assay: biochemical; format: biochemical; conditions: for IC50: BuChE from equine serum, mean ± SD (n=3)
T1 construct: Butyrylcholinesterase (BuChE, from equine serum, Aladdin, Shanghai, China); purchased Aladdin, Shanghai, China; host or cells: equine serum
Procedure: (§1) In the experiment, 0.05 mol/L phosphate buffered saline (PBS) of pH 8.0 was prepared first, and then the following solutions were prepared: 1.5 mmol/L Acetylthiocholine iodide (ATChI); 0.75 mmol/L 5, 5'-Dithiobis-(2-nitrobenzoic acid) (DTNB, Sigma Aldrich, St. Louis, MO); 0.2 U/mL Acetylcholinesterase (AChE, from […], Macklin); 0.5 U/mL Butyrylcholinesterase (BuChE, from equine serum, Aladdin, Shanghai, China); 1.5 mmol/L S-Butyrylthiocholine iodide (BTChI, Sigma Aldrich, St. Louis, MO). 4% sodium dodecyl sulphate (SDS) was prepared with secondary water. […] All solutions were stored in a refrigerator at 4 °C.
(§2) The AChE/BuChE inhibitory activity of the 3–(4-aminophenyl)-coumarin derivatives was determined by the method of Ellaman[28] with slight modifications. The experiment was divided into control group, sample blank group and sample group. Take a series of test tubes, the reagents were loaded in test tubes at the dose of Table 6. After incubation at 37 °C for 20 min, quickly add 1 mL of 4% SDS to stop the reaction. […] All experiments were run in triplicate. The absorbance was determined by UV spectrophotometer, and the inhibition rate of AChE and the IC50 value of each sample were calculated according to the formula. Inhibition rate % = {[(AC−AS)−ASB]/AC} ×100%, where AC (no sample added) is the absorbance of control group; AS is the absorbance of sample group; ASB (add sample solution but no substrate ATChI added) is the absorbance of sample blank group.
The method for determining BuChE is the same as the method for measuring AChE. The sample can be added with reference to Table 6, AChE is changed to BuChE, and the substrate ATChI is changed to substrate BTChI. The order of loading and the amount of loading are the same as Table 6. The absorbance was determined by UV spectrophotometer, and the inhibition rate of BuChE and the IC50 value of each sample were calculated according to the formula. The formula used is the same as AChE.

[1] = test system: aluminium trichloride-induced zebrafish juveniles; assay: Effects of compounds on aluminium trichloride-induced behavioural inhibition of zebrafish juveniles (Zebrobox); conditions: for Total movement distance: mean ± SE, n=8; for Effect on behavioural inhibition of zebrafish induced by aluminium trichloride (in words): compared with the model group
Procedure: The most suitable modelling concentrations were chosen, and then the effect of the compounds on the behaviour of the aluminium trichloride-induced zebrafish juveniles was explored.
The 72 hpf zebrafish were placed in a petri dish, and the normal developing juveniles were selected under a microscope in a 12-well plate. […] The continuous drug solution was exposed for 3 days. […] Each well was juvenile fish developed to 72 h post-exposure (hpe) and added 0.5 mL of culture water and 8 juveniles were set in each experimental group. The well plate was placed in the dark box of the zebrafish behaviour analysis system. The fish was first adapted to 10 min at the beginning of the experiment. The trajectories of the juveniles in each group were collected using zeblab software for 10 min, recorded every 5 min, and exported by software. Then calculate the total distance of each group of zebrafish juveniles.
The zebrafish with 72 hpf after fertilisation is placed in a petri dish. Under normal conditions, the normal developing juvenile fish are selected in a 12-well plate, and 15 juveniles per hole are set. Control group (0.5% DMSO), model group (5.0 mg/L AlCl3), 5.0 mg/L AlCl3 + test compound 5 μg/mL group, 5.0 mg/L AlCl3 + test compound 10 μg/mL group, 5.0 mg/L AlCl3 + test compound 50 μg/mL group, 5.0 mg/L AlCl3 + test compound 100 μg/mL group, three duplicate wells were set at each concentration. After the administration, the zebrafish was placed in a constant temperature incubator at 28 °C to continue the culture for 3 days. Changing the liquid (aquaculture water) every 24 h and removing dead young fish.

[2] = molecular target: T2, AChE from Electrophorus electricus (Electrophorus electricus, UniProt O42275); assay: biochemical; format: biochemical; conditions: for IC50: AChE from Electrophorus electricus, mean ± SD (n=3); for AChE inhibitory activity (in words): verbal summary of Table 2
T2 construct: purchased Macklin
Procedure: as §1, §2

zebrafish juveniles = assay: Model of exercise retardation, death and teratogenicity in zebrafish juveniles made of aluminium trichloride; conditions: for Movement distance: 72 hpe, n=6; for Movement distance / Malformation rate / Mortality rate: mean ± SE; for Malformation rate / Mortality rate: after 72 h, n=90
Procedure: The 72 hpf zebrafish were placed in a petri dish, and the normal developing juveniles were selected under a microscope in a 12-well plate. The concentration of AlCl3 in the experiment was set to 0, 0.1, 0.5, 1.0, 5.0, 10.0, and 50.0 mg/L (prepared for aquaculture water), three replicate wells were set in each concentration group and then placed in a constant temperature incubator at 28 °C to continue the culture. The continuous drug solution was exposed for 3 days. The different concentrations of AlCl3 and the blank control group were placed in 48-well plates. Each well was juvenile fish developed to 72 h post-exposure (hpe) and added 0.5 mL of culture water and 8 juveniles were set in each experimental group. The well plate was placed in the dark box of the zebrafish behaviour analysis system. The fish was first adapted to 10 min at the beginning of the experiment. The trajectories of the juveniles in each group were collected using zeblab software for 10 min, recorded every 5 min, and exported by software. Then calculate the total distance of each group of zebrafish juveniles. The effects of different concentrations of aluminium trichloride on the death and teratogenicity of zebrafish juveniles were observed by microscopy.

[3] = 5 mg/L compound + 5.0 mg/L AlCl3, 3 days
[4] = 10 mg/L compound + 5.0 mg/L AlCl3, 3 days
[5] = 50 mg/L compound + 5.0 mg/L AlCl3, 3 days
[6] = 100 mg/L compound + 5.0 mg/L AlCl3, 3 days

T1 sequence (P81908 whole entry): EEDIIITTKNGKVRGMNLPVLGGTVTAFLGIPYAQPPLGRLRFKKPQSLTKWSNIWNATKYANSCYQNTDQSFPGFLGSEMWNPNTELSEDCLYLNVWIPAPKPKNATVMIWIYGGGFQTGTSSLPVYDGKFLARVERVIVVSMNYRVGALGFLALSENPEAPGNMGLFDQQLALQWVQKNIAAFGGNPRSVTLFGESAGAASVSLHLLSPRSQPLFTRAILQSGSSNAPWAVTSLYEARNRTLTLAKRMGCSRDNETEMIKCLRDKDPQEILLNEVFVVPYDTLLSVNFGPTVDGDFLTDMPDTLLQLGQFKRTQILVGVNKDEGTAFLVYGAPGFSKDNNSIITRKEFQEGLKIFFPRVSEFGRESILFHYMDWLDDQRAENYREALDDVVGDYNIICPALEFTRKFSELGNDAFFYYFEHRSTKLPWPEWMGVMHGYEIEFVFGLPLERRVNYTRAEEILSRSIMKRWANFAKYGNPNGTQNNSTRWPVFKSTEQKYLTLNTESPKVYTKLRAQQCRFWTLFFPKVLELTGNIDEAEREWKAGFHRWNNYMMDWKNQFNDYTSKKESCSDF
T2 sequence (O42275 24-633): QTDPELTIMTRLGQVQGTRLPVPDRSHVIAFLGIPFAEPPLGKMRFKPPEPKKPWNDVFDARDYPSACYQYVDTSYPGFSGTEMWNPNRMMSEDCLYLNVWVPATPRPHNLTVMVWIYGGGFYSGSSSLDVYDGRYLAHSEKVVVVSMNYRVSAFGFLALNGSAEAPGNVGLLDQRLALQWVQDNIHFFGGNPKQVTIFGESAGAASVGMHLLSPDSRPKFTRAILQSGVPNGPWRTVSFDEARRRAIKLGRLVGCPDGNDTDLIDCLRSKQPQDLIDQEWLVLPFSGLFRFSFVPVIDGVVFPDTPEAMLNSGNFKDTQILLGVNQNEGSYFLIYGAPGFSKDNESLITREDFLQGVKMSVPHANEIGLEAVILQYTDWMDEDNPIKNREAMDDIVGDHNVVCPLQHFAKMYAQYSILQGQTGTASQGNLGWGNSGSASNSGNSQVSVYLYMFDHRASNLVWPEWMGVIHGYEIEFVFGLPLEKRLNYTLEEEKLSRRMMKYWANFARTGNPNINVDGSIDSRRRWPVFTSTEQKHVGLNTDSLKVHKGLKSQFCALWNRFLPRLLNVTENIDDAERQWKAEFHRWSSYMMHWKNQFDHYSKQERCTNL

Row | Structure (SMILES) | IC50 (BuChE from equine serum) [µM] | Total movement distance [1, 3] [cm] | Total movement distance [1, 4] [cm] | Total movement distance [1, 5] [cm] | Total movement distance [1, 6] [cm] | Effect on behavioural inhibition of zebrafish induced by aluminium trichloride (in words) [1] | IC50 [2] [µM] | SI: selectivity index (IC50 BuChE/IC50 AChE) [2] | AChE inhibitory activity (in words) [2] | also measured
1 | COc1cccc2cc(-c3ccc(NC(=O)c4cccc(F)c4)cc3)c(=O)oc12 [Compound 4j, 3-[4-(3-fluoro-benzoylamino)-phenyl]-8-methoxy-coumarin] | 0.905 ± 0.081 | 208.8 ± 9.6 | 226 ± 10.7 | 231.8 ± 13.2 | 225.7 ± 13.4 | certain therapeutic effects; also recorded: could alleviate the behavioural inhibition symptoms | 4.16 ± 0.161 | 0.217 | moderate to excellent AChE inhibitory activity | BuChE inhibitory activity (in words) (BuChE from equine serum; verbal summary of Table 2, comparison with donepezil): better than donepezil
2 | COc1cccc2cc(-c3ccc(NC(=O)c4cccs4)cc3)c(=O)oc12 [Compound 7d, 3-[4-(thiophene-2-formylamino)-phenyl]-8-methoxy-coumarin] | 4.65 ± 0.245 | 202.9 ± 6.2 | 208.4 ± 9.7 | 224.2 ± 9.2 | 235.4 ± 11.4 | certain therapeutic effects; also recorded: could alleviate the behavioural inhibition symptoms | 6.63 ± 0.12 | 0.700 | moderate to excellent AChE inhibitory activity | –
3 | COc1cccc2cc(-c3ccc(NC(=O)c4cccc(Cl)c4Cl)cc3)c(=O)oc12 [Compound 4r, 3-[4-(2,3-dichloro-benzoylamino)-phenyl]-8-methoxy-coumarin] | 4.33 ± 0.125 | 178 ± 11.2 | 182.4 ± 4.6 | 196.4 ± 11.7 | 194.4 ± 9.4 | – | 19.7 ± 2.45 | 0.220 | – | –
4 | COc1cccc2cc(-c3ccc(NC(=O)c4ccc(C(F)(F)F)cc4)cc3)c(=O)oc12 [Compound 4l, 3-[4-(4-trifluoromethyl-benzoylamino)-phenyl]-8-methoxy-coumarin] | 4.32 ± 0.685 | 179.9 ± 10.1 | 194.6 ± 13.6 | 211.5 ± 20.2 | 184.8 ± 11.5 | – | 5.6 ± 0.132 | 0.772 | moderate to excellent AChE inhibitory activity | –
5 | O=C(Nc1ccc(-c2cc3ccc(O)cc3oc2=O)cc1)c1ccco1 [Compound 5a, 3-[4-(furan-2-formylamino)-phenyl]-7-hydroxy-coumarin] | 9.55 ± 0.455 | 194.2 ± 6.5 | 188.8 ± 14.7 | 215.5 ± 17.1 | 187.2 ± 6.2 | – | 2.49 ± 0.151 | 3.842 | moderate to excellent AChE inhibitory activity | –
6 | COc1cccc2cc(-c3ccc(NC(=O)c4ccc(CCl)cc4)cc3)c(=O)oc12 [Compound 4m, 3-[4-(4-chloromethyl-benzoylamino)-phenyl]-8-methoxy-coumarin] | 41.2 ± 1.04 | 198.3 ± 10.1 | 210.2 ± 6.0 | 230.8 ± 6.2 | 247.1 ± 12.3 | certain therapeutic effects; also recorded: could alleviate the behavioural inhibition symptoms | 0.091 ± 0.011 | 452.637 | moderate to excellent AChE inhibitory activity | Effect on total distance of zebrafish juvenile movement (in words) ([1]; at 50.0 and 100.0 μg/mL concentration): significant therapeutic effect; also recorded: significant effects compared with the model group; Selectivity AChE/BuChE (in words) ([2]; verbal summary of SI): highly selective for AChE
7 | [Cl][Al]([Cl])[Cl] [AlCl3, aluminium trichloride] | – | – | – | – | – | – | – | – | – | Movement distance (zebrafish juveniles; AlCl3 0.1 mg/L): 292.4 ± 6.7 cm; Malformation rate (zebrafish juveniles; AlCl3 0.1 mg/L): 0.00 ± 0.00%; Mortality rate (zebrafish juveniles; AlCl3 0.1 mg/L): 0.00 ± 0.00%; Movement distance (zebrafish juveniles; AlCl3 0.5 mg/L): 236.8 ± 9.4 cm; Malformation rate (zebrafish juveniles; AlCl3 0.5 mg/L): 0.00 ± 0.00%; Mortality rate (zebrafish juveniles; AlCl3 0.5 mg/L): 0.00 ± 0.00%; Movement distance (zebrafish juveniles; AlCl3 1.0 mg/L): 224.3 ± 10.8 cm; Malformation rate (zebrafish juveniles; AlCl3 1.0 mg/L): 1.11 ± 0.17%; Mortality rate (zebrafish juveniles; AlCl3 1.0 mg/L): 0.00 ± 0.00%; Movement distance (zebrafish juveniles; AlCl3 5.0 mg/L): 181.3 ± 9.6 cm; Malformation rate (zebrafish juveniles; AlCl3 5.0 mg/L): 2.22 ± 0.17%; Mortality rate (zebrafish juveniles; AlCl3 5.0 mg/L): 1.11 ± 0.17%; Movement distance (zebrafish juveniles; AlCl3 10.0 mg/L): 204.6 ± 12.8 cm; Malformation rate (zebrafish juveniles; AlCl3 10.0 mg/L): 16.67 ± 0.29 %; Mortality rate (zebrafish juveniles; AlCl3 10.0 mg/L): 11.11 ± 0.17 %; Death or malformation of zebrafish (in words) (zebrafish juveniles; AlCl3 50.0 mg/L, after 24 h administration): Most of the fish in the 50.0 mg/L group were dead or malformed; Malformation rate (zebrafish juveniles; AlCl3 50.0 mg/L): 100.00 ± 0.00 %; Mortality rate (zebrafish juveniles; AlCl3 50.0 mg/L): 100.00 ± 0.00 %; Death of zebrafish (in words) (zebrafish juveniles; AlCl3 50.0 mg/L, at 48 h): all fish died
